Test [1] is described as follows: Antiproliferative activity against human MGC803 cells assessed as cell growth inhibition after 72 hrs by MTT assay. The test is classed as functional, cell-based. The following applies: MGC-803, 72 h.
In test [2] the test system is MCF7. The experiment in a line: cells. The note with it: Homo sapiens, MCF7, 72 h.
Description: Antiproliferative activity against human MCF7 cells assessed as cell growth inhibition after 72 hrs by MTT assay
Test [3] in a line: Antiproliferative activity against human EC109 cells assessed as cell growth inhibition after 72 hrs by MTT assay. In kind it is functional, cell-based. The note with it: ECa-109, 72 h. In general terms: Tetrazolium dyes change colour on reduction, which living cells bring about.
Test [4] relates to SH-SY5Y. The experiment in a line: Antiproliferative activity against human SH-SY5Y cells assessed as cell growth inhibition after 72 hrs by MTT assay. The test is classed as functional, cell-based.
Test [5] is described as follows: Antiproliferative activity against human U87 cells assessed as cell growth inhibition after 72 hrs by MTT assay. In kind it is functional, cell-based, U-87MG ATCC. The note with it: U-87 MG.

Our source for the IC50 values is ChEMBL document CHEMBL3804830, “Efficient synthesis of new antiproliferative steroidal hybrids using the molecular hybridization approach” (Eur J Med Chem, 2016).

For orientation: IC50 means the concentration that gives 50% inhibition.

Turning to `C[C@]12CC[C@H](OC(=O)Cn3cc(COc4ccc(C(=O)/C=C/c5ccc(Cl)c(Cl)c5)cc4)nn3)CC1=CC[C@@H]1[C@@H]2CC[C@]2(C)C(=O)CC[C@@H]12`, the IC50 in test [1] was above 128 µM; in test [2], above 128 µM; in test [3], above 128 µM; in test [4], 36.6 µM; in test [5], above 128 µM.

In the case of `C[C@]12CC[C@H](OC(=O)Cn3cc(COc4ccc(C(=O)/C=C/c5ccc(Br)cc5)cc4)nn3)CC1=CC[C@@H]1[C@@H]2CC[C@]2(C)C(=O)CC[C@@H]12`, the half-maximal inhibitory concentration (IC50) in test [1] was above 128 µM; in test [2], 112 µM; in test [3], 79.8 µM; in test [4] it was 72.6 µM; in test [5], above 128 µM.

`C[C@]12CC[C@H](OC(=O)Cn3cc(CN4C(=O)C(=O)c5cc(F)ccc54)nn3)CC1=CC[C@@H]1[C@@H]2CC[C@]2(C)C(=O)CC[C@@H]12`: the IC50 in test [1] is 58.9 µM; in test [2] it was above 128 µM; in test [3] it was above 128 µM; in test [4], 9.25 µM; in test [5], 91.1 µM.

With `C[C@]12CC[C@H](OC(=O)Cn3cc(COc4ccc5ccc(=O)oc5c4)nn3)CC1=CC[C@@H]1[C@@H]2CC[C@]2(C)C(=O)CC[C@@H]12`, the concentration for half-maximal inhibition (IC50) in test [1] is above 128 µM; in test [2] it was above 128 µM; in test [3], above 128 µM; in test [4], 54.9 µM; in test [5], 43.7 µM.

For the compound `Cc1ccc(OCc2cn(CC(=O)O[C@H]3CC[C@@]4(C)C(=CC[C@@H]5[C@@H]4CC[C@]4(C)C(=O)CC[C@@H]54)C3)nn2)cc1`, the half-inhibitory concentration (IC50) in test [1] was determined as 21.6 µM; in test [2] it was 38.6 µM; in test [3], 23.9 µM; in test [4], 26.9 µM; in test [5], 18.5 µM.

Consider `C[C@]12CC[C@H](OC(=O)Cn3cc(Cn4cc(F)c(=O)n(Cc5cn(CC(=O)O[C@H]6CC[C@@]7(C)C(=CC[C@@H]8[C@@H]7CC[C@]7(C)C(=O)CC[C@@H]87)C6)nn5)c4=O)nn3)CC1=CC[C@@H]1[C@@H]2CC[C@]2(C)C(=O)CC[C@@H]12`, for which the IC50 in test [1], in test [2], in test [3], in test [4] and in test [5] was above 128 µM in each case.

For `O=c1[nH]cc(F)c(=O)[nH]1` [FLUOROURACIL], the half-maximal inhibitory concentration (IC50) in test [1] amounted to 1.25 µM; in test [3], 3.17 µM; in test [4] it was 3.26 µM; in test [5], 5.61 µM.

Take `C[C@]12CC[C@H](OC(=O)Cn3cc(CN4C(=O)C(=O)c5c(Br)cccc54)nn3)CC1=CC[C@@H]1[C@@H]2CC[C@]2(C)C(=O)CC[C@@H]12`: the IC50 in test [1] was 26.4 µM; in test [2], above 128 µM; in test [3] it was 78.4 µM; in test [4], above 128 µM; in test [5], 21.3 µM.

As to `C[C@]12CC[C@H](OC(=O)Cn3cc(CN4C(=O)C(=O)c5ccccc54)nn3)CC1=CC[C@@H]1[C@@H]2CC[C@]2(C)C(=O)CC[C@@H]12`, the 50% inhibitory concentration (IC50) is above 128 µM in test [1]; above 128 µM in test [2]; above 128 µM in test [3]; 8.62 µM in test [4]; 45.6 µM in test [5].

For `Cc1cc(=O)oc2cc(OCc3cn(CC(=O)O[C@H]4CC[C@@]5(C)C(=CC[C@@H]6[C@@H]5CC[C@]5(C)C(=O)CC[C@@H]65)C4)nn3)ccc12`, the IC50 in test [1] was above 128 µM; in test [2], above 128 µM; in test [3] it was above 128 µM; in test [4] it was 49.5 µM; in test [5], 47.4 µM.

As for `C[C@]12CC[C@H](OC(=O)Cn3cc(CN4C(=O)C(=O)c5c(Cl)cccc54)nn3)CC1=CC[C@@H]1[C@@H]2CC[C@]2(C)C(=O)CC[C@@H]12`, the IC50 in test [1] was above 128 µM; in test [2], above 128 µM; in test [3], 124 µM; in test [4], 18.5 µM; in test [5] it was 33.1 µM.

As to `Cc1ccc(/C=C/C(=O)c2ccc(OCc3cn(CC(=O)O[C@H]4CC[C@@]5(C)C(=CC[C@@H]6[C@@H]5CC[C@]5(C)C(=O)CC[C@@H]65)C4)nn3)cc2)cc1`, the IC50 in test [1] is above 128 µM; in test [2] it was 73.3 µM; in test [3], above 128 µM; in test [4], 50.1 µM; in test [5], above 128 µM.

As to `C[C@]12CC[C@H](OC(=O)Cn3cc(COc4ccc(/C=C/C(=O)c5ccccc5)cc4)nn3)CC1=CC[C@@H]1[C@@H]2CC[C@]2(C)C(=O)CC[C@@H]12`, the IC50 was above 128 µM in test [1]; above 128 µM in test [2]; 118 µM in test [3]; 75 µM in test [4]; above 128 µM in test [5].

For `C[C@]12CC[C@H](OC(=O)Cn3cc(CNc4cccc([N+](=O)[O-])c4)nn3)CC1=CC[C@@H]1[C@@H]2CC[C@]2(C)C(=O)CC[C@@H]12`, the IC50 in test [1] was 28.6 µM; in test [2], 45.2 µM; in test [3], 55.4 µM; in test [4] it was above 128 µM; in test [5], above 128 µM.

With `COc1ccc(NCc2cn(CC(=O)O[C@H]3CC[C@@]4(C)C(=CC[C@@H]5[C@@H]4CC[C@]4(C)C(=O)CC[C@@H]54)C3)nn2)cc1`, the IC50 is 11.6 µM in test [1]; 21.3 µM in test [2]; 24.7 µM in test [3]; 69.8 µM in test [4]; 96.5 µM in test [5].

Turning to `O=c1c(F)cn(Cc2cn(Cc3ccccc3Cl)nn2)c(=O)n1Cc1cn(Cc2ccccc2Cl)nn1`, the half-inhibitory concentration (IC50) in test [1], in test [2], in test [3], in test [4] and in test [5] was above 128 µM each time.

With `C[C@]12CC[C@H](OC(=O)Cn3cc(COc4ccccc4[N+](=O)[O-])nn3)CC1=CC[C@@H]1[C@@H]2CC[C@]2(C)C(=O)CC[C@@H]12`, the IC50 was 51.3 µM in test [1]; 45.1 µM in test [2]; 49.8 µM in test [3]; 65 µM in test [4]; above 128 µM in test [5].

Take `C[C@]12CC[C@H](OC(=O)Cn3cc(CN4C(=O)C(=O)c5cc(Cl)ccc54)nn3)CC1=CC[C@@H]1[C@@H]2CC[C@]2(C)C(=O)CC[C@@H]12`: the IC50 is 57.8 µM in test [1]; above 128 µM in test [2]; 61.7 µM in test [3]; 7.32 µM in test [4]; 47.9 µM in test [5].

As to `C[C@]12CC[C@H](OC(=O)Cn3cc(COc4cc(=O)oc5ccccc45)nn3)CC1=CC[C@@H]1[C@@H]2CC[C@]2(C)C(=O)CC[C@@H]12`, the concentration for half-maximal inhibition (IC50) in test [1] is above 128 µM; in test [2], above 128 µM; in test [3], above 128 µM; in test [4], above 128 µM; in test [5], 40 µM.

As to `C[C@]12CC[C@H](OC(=O)Cn3cc(COc4ccc(/C=C/C(=O)c5ccc(F)cc5)cc4)nn3)CC1=CC[C@@H]1[C@@H]2CC[C@]2(C)C(=O)CC[C@@H]12`, the half-inhibitory concentration (IC50) was above 128 µM in test [1]; 91.5 µM in test [2]; above 128 µM in test [3]; 46.5 µM in test [4]; above 128 µM in test [5].

For `C[C@]12CC[C@H](OC(=O)Cn3cc(CN4C(=O)C(=O)c5cccc(Cl)c54)nn3)CC1=CC[C@@H]1[C@@H]2CC[C@]2(C)C(=O)CC[C@@H]12`, the half-maximal inhibitory concentration (IC50) was 8.74 µM in test [1]; 13.3 µM in test [2]; 84.6 µM in test [3]; 14.6 µM in test [4]; 20.8 µM in test [5].

On to `C[C@]12CC[C@H](OC(=O)Cn3cc(COc4ccc(C(=O)/C=C/c5ccc(F)c(F)c5)cc4)nn3)CC1=CC[C@@H]1[C@@H]2CC[C@]2(C)C(=O)CC[C@@H]12`, for which the IC50 in test [1] was above 128 µM; in test [2] it was 92.6 µM; in test [3], above 128 µM; in test [4] it was 42.1 µM; in test [5], above 128 µM.

On to `C[C@]12CC[C@H](OC(=O)Cn3cc(CNc4ccc(Br)cc4)nn3)CC1=CC[C@@H]1[C@@H]2CC[C@]2(C)C(=O)CC[C@@H]12`, for which the concentration for half-maximal inhibition (IC50) in test [1] is 19.4 µM; in test [2], 27.6 µM; in test [3], 37.1 µM; in test [4] it was 59.4 µM; in test [5], 86.7 µM.

As for `C[C@]12CC[C@H](OC(=O)Cn3cc(COc4ccc(Br)cc4)nn3)CC1=CC[C@@H]1[C@@H]2CC[C@]2(C)C(=O)CC[C@@H]12`, the IC50 in test [1] worked out at 48.2 µM; in test [2], 93.2 µM; in test [3], 21 µM; in test [4], 22.7 µM; in test [5], 30.1 µM.

Turning to `C[C@]12CC[C@H](OC(=O)Cn3cc(COc4ccc(C(=O)/C=C/c5ccc([N+](=O)[O-])cc5)cc4)nn3)CC1=CC[C@@H]1[C@@H]2CC[C@]2(C)C(=O)CC[C@@H]12`, the IC50 in test [1] is 99.5 µM; in test [2], above 128 µM; in test [3], above 128 µM; in test [4], above 128 µM; in test [5], above 128 µM.

For `C[C@]12CC[C@H](OC(=O)Cn3cc(CN4C(=O)C(=O)c5cc(Br)ccc54)nn3)CC1=CC[C@@H]1[C@@H]2CC[C@]2(C)C(=O)CC[C@@H]12`, the concentration for half-maximal inhibition (IC50) in test [1] was 32.5 µM; in test [2] it was above 128 µM; in test [3], 44.1 µM; in test [4], 10.3 µM; in test [5], 39.2 µM.
